# Reference: US8168651B2, “Protein kinase modulators” (Cylene Pharmaceuticals, Inc., priority 2008, dated 2012)
# Where two headings read alike, the source gives them in different places.
# Columns and labels:
# recombinant human CK2 = recombinant human CK2 (Homo sapiens (Human), UniProt P68400); assay: CK2 assay (cell-free, 33P-ATP filter plate); assay type: biochemical; details: for inhibition at 10 µM: read-out: CK2 % inhib @ 10 uM; for inhibition at 0.5 µM: 500 nM compound, cell-free assay, read-out: CK2: % inh 500 nM; for inhibition at 5 µM: read-out: CK2 % inhibition 5 uM, 5 uM
# Chain of recombinant human CK2 (P68400 whole entry): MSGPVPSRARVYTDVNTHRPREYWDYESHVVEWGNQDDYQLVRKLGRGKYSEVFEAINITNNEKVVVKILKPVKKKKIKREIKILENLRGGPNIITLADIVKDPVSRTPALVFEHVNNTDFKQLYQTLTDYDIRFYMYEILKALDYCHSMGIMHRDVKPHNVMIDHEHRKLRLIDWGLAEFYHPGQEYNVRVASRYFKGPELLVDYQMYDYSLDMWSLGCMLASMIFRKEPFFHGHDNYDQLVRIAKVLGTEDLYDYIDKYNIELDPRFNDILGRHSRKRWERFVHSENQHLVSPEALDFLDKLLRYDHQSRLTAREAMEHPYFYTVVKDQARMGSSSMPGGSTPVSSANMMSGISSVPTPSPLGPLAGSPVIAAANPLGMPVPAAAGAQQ
# Chain of recombinant human CK2 (P67870 whole entry partner): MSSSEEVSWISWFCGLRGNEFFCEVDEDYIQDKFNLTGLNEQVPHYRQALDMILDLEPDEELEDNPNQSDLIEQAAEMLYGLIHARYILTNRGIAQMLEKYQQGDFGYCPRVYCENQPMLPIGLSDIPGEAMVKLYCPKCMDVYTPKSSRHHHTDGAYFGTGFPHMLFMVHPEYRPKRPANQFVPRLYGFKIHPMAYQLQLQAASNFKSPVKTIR
# recombinant human PIM1 = recombinant human PIM1 (Homo sapiens (Human), UniProt P11309); assay: PIM-1 kinase activity in cell-free in vitro assay; assay type: biochemical; details: for inhibition at 0.5 µM: read-out: PIM-1: % inh 500 nM
# Chain of recombinant human PIM1 (P11309 whole entry): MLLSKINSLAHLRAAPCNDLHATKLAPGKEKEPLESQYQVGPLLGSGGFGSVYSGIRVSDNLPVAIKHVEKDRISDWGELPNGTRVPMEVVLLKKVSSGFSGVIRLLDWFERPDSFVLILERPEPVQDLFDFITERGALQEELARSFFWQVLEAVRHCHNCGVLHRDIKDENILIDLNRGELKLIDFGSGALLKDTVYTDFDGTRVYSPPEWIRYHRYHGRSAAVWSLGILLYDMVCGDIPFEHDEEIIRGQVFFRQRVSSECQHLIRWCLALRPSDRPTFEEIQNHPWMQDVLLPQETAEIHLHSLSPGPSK
# [1] = system: HCT-116 human colorectal carcinoma cells; assay: Cell-proliferation assay using Alamar Blue dye; assay type: cell-based; details: Homo sapiens;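 further: cells exposed to compound for about 4 days, then Alamar Blue added and dye fluorescence read after about 4 h, compared with medium-only control wells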
# [2] = 500 nM compound, cell-free assay
# [3] = read-out: CK2 % inhibition 1.0 uM, 1.0 uM
# [4] = HCT-116, HCT-116, first column, read-out: HCT-116 (uM), cell proliferation modulatory activity
# [5] = HCT-116, read-out: HCT-116 (uM), cell proliferation modulatory activity, HCT-116, first column
# [6] = HCT-116, read-out: HCT-116 (uM), cell proliferation modulatory activity, HCT-116, second column
# [7] = HCT-116, HCT-116, second HCT-116 column (c8), read-out: HCT-116 (uM), cell proliferation modulatory activity
# [8] = HCT-116, HCT-116, second column, read-out: HCT-116 (uM), cell proliferation modulatory activity
smiles,measurement,setting,value
COCCNC(=O)c1ccc2c(c1)[nH]c(=O)c1ccsc12,inhibition at 10 µM,recombinant human CK2,-19%
COC(=O)c1ccc2c(c1)[nH]c(=O)c1ccsc12,inhibition at 10 µM,recombinant human CK2,17%
CN1CCCCC1CNc1nc2cc(C(=O)O)ccc2c2sccc12 (centres unmarked),inhibition at 0.5 µM,recombinant human PIM1; [2],88%
same,IC50,recombinant human PIM1; cell-free assay,0.104 µM
same,inhibition at 0.5 µM,recombinant human CK2,80.1%
O=C(NCCN1CCOCC1)c1ccc2c(c1)[nH]c(=O)c1ccsc12,inhibition at 10 µM,recombinant human CK2,-9%
O=c1[nH]c2ccc(OC(F)(F)F)cc2c2cnccc12,inhibition at 0.5 µM,recombinant human PIM1; [2],9.09%
same,inhibition at 0.5 µM,recombinant human CK2,1.22%
COC(C)(C)CNc1nc2cc(C#N)ccc2c2sccc12,inhibition at 0.5 µM,recombinant human PIM1; [2],-30%
same,inhibition at 0.5 µM,recombinant human CK2,-17.1%
CC(C)(C)OC(=O)CCNC(=O)c1ccc2c(c1)[nH]c(=O)c1ccsc12,inhibition at 10 µM,recombinant human CK2,8%
COc1ccc(CNC(=O)c2ccc3c(c2)[nH]c(=O)c2ccsc23)cc1,inhibition at 10 µM,recombinant human CK2,1%
NC(=O)c1ccc2c(c1)[nH]c(=O)c1ccsc12,inhibition at 10 µM,recombinant human CK2,-14%
O=C(Nc1ccc(CN2CCS(=O)(=O)CC2)cc1)c1ccc2c(c1)[nH]c(=O)c1ccsc12,inhibition at 10 µM,recombinant human CK2,-1%
N#Cc1ccc2c(c1)[nH]c(=O)c1ccsc12,inhibition at 10 µM,recombinant human CK2,-5%
O=C(O)c1ccc2c(c1)nc(NC1CCCCC1)c1ccncc12,inhibition at 0.5 µM,recombinant human PIM1; [2],64.8%
same,inhibition at 0.5 µM,recombinant human CK2,95.8%
O=c1[nH]c2cc(-c3nnn[nH]3)ccc2c2cnccc12 [drawing 568],inhibition at 1 µM,"recombinant human CK2; at 1 μM, read-out: CK2 Inhibition",46%
O=C(NCCc1cnc[nH]1)c1ccc2c(c1)[nH]c(=O)c1ccsc12,inhibition at 10 µM,recombinant human CK2,7%
O=C(NCCc1ccccn1)c1ccc2c(c1)[nH]c(=O)c1ccsc12,inhibition at 10 µM,recombinant human CK2,-24%
O=C(NCc1ccncc1)c1ccc2c(c1)[nH]c(=O)c1ccsc12,inhibition at 10 µM,recombinant human CK2,-13%
COc1ccc(CCNC(=O)c2ccc3c(c2)[nH]c(=O)c2ccsc23)cc1OC,inhibition at 10 µM,recombinant human CK2,-22%
CC(C)(C)OC(=O)NC1CCN(C(=O)c2ccc3c(c2)[nH]c(=O)c2ccsc23)CC1 [drawing 676],CK2 % inhib @ 10 uM,recombinant human CK2,10%
O=C(Nc1nccs1)c1ccc2c(c1)[nH]c(=O)c1ccsc12,inhibition at 10 µM,recombinant human CK2,10%
COC(=O)c1ccccc1NC(=O)c1ccc2c(c1)[nH]c(=O)c1ccsc12 [drawing 673],CK2 % inhib @ 10 uM,recombinant human CK2,5%
O=C(O)CNC(=O)c1ccc2c(c1)[nH]c(=O)c1ccsc12,inhibition at 10 µM,recombinant human CK2,12%
COC(=O)c1ccccc1NC(=O)c1ccc2c(c1)[nH]c(=O)c1ccsc12 [drawing 674],CK2 % inhib @ 10 uM,recombinant human CK2,−16%
O=c1[nH]c2ccccc2c2sccc12,inhibition at 10 µM,recombinant human CK2,0%
O=C(O)c1ccc2c(c1)[nH]c(=O)c1cc(Br)sc12,inhibition at 10 µM,recombinant human CK2,5%
Cc1cc(CNC(=O)c2ccc3c(c2)[nH]c(=O)c2ccsc23)no1,inhibition at 10 µM,recombinant human CK2,-13%
O=C(NCc1cccnc1)c1ccc2c(c1)[nH]c(=O)c1ccsc12,inhibition at 10 µM,recombinant human CK2,-24%
N#Cc1ccc2c(c1)nc(Nc1ccccc1)c1ccsc12 [drawing 614],inhibition at 1 µM,recombinant human CK2; [3],0%
CN(C)CCNc1nc2ccccc2c2sccc12 [drawing 589],inhibition at 5 µM,recombinant human CK2,0%
COC(=O)CNC(=O)c1ccc2c(c1)[nH]c(=O)c1ccsc12,inhibition at 10 µM,recombinant human CK2,10%
O=C(c1ccc2c(c1)[nH]c(=O)c1ccsc12)N1CCNCC1,inhibition at 10 µM,recombinant human CK2,-27%
CCCNC(=O)c1ccc2c(c1)[nH]c(=O)c1ccsc12,inhibition at 10 µM,recombinant human CK2,-34%
N#Cc1ccc2c(c1)nc(Cl)c1ccsc12 [drawing 587],inhibition at 5 µM,recombinant human CK2,63%
COc1ccccc1CNC(=O)c1ccc2c(c1)[nH]c(=O)c1ccsc12,inhibition at 10 µM,recombinant human CK2,8%
NC(=O)c1ccc2c(c1)nc(Nc1ccccc1)c1ccsc12 [drawing 615],inhibition at 1 µM,recombinant human CK2; [3],0%
O=C(NCc1ccccc1)c1ccc2c(c1)[nH]c(=O)c1ccsc12 [drawing 671],CK2 % inhib @ 10 uM,recombinant human CK2,14%
O=C(Nc1cccnc1)c1ccc2c(c1)[nH]c(=O)c1ccsc12,inhibition at 10 µM,recombinant human CK2,-9%
O=C(c1ccc2c(c1)[nH]c(=O)c1ccsc12)N1CCOCC1,inhibition at 10 µM,recombinant human CK2,2%
c1ccc(Nc2nc3ccccc3c3sccc23)cc1 [drawing 1399],IC50,[1]; [4],10 µM
same,inhibition at 0.5 µM,"recombinant human PIM1; 500 nM compound, cell-free",-22%
O=c1[nH]c(-c2ccc3c(c2)nc(Nc2ccccc2)c2ccsc23)no1 [drawing 617],inhibition at 1 µM,recombinant human CK2; [3],0%
O=c1[nH]c2cc(CO)ccc2c2sccc12,inhibition at 10 µM,recombinant human CK2,3%
NC1CCN(C(=O)c2ccc3c(c2)[nH]c(=O)c2ccsc23)CC1,inhibition at 10 µM,recombinant human CK2,-3%
O=C(O)c1ccc2c(c1)nc(Nc1cccc(O)c1)c1ccsc12,IC50,[1]; [5],10 µM
same,inhibition at 0.5 µM,"recombinant human PIM1; 500 nM compound, cell-free",6.5%
O=C(O)c1ccc2c(c1)nc(Nc1cc(F)cc(C(F)(F)F)c1)c1ccsc12,IC50,[1]; [6],> 10 µM
same,inhibition at 0.5 µM,"recombinant human PIM1; 500 nM compound, cell-free",82.6%
same,IC50,recombinant human PIM1; cell-free,0.336 µM
CN(C)C(=O)c1ccc2c(c1)[nH]c(=O)c1ccsc12,inhibition at 10 µM,recombinant human CK2,3%
CN(C)CCNc1nc2cc(C#N)ccc2c2sccc12 [drawing 612],inhibition at 1 µM,recombinant human CK2; [3],0%
CC(=O)N1CCN(C(=O)c2ccc3c(c2)[nH]c(=O)c2ccsc23)CC1,inhibition at 10 µM,recombinant human CK2,7%
c1ccc(Nc2nc3ccccc3c3ccccc23)cc1,IC50,[1]; [4],10 µM
same,inhibition at 0.5 µM,"recombinant human PIM1; 500 nM compound, cell-free",-23.9%
CC(C)(C)OC(=O)NC1CCN(C(=O)c2ccc3c(c2)[nH]c(=O)c2ccsc23)CC1 [drawing 677],CK2 % inhib @ 10 uM,recombinant human CK2,1%
O=C(Nc1ccc(Cl)cc1)c1ccc2c(c1)[nH]c(=O)c1ccsc12,inhibition at 10 µM,recombinant human CK2,-10%
O=C(NCCc1ccccc1)c1ccc2c(c1)[nH]c(=O)c1ccsc12,inhibition at 10 µM,recombinant human CK2,1%
COC(=O)c1ccc2c(c1)nc(Nc1ccccc1C)c1nc(SC)ncc12,IC50,[1]; [7],> 10 µM
same,inhibition at 0.5 µM,recombinant human PIM1; [2],12.5%
Cn1nc(-c2ccccc2)cc1Nc1nc2cc(C(=O)O)ccc2c2cnccc12,IC50,[1]; [7],> 10 µM
same,inhibition at 0.5 µM,recombinant human PIM1; [2],58.3%
same,IC50,recombinant human PIM1; cell-free assay,0.914 µM
Cc1cnc(CNC(=O)c2ccc3c(c2)nc(N2CCN(C)CC2)c2ccncc23)cn1,IC50,[1]; [7],> 10 µM
same,inhibition at 0.5 µM,recombinant human PIM1; [2],-23.1%
C#Cc1cccc(Nc2nc3cc(-c4nnn[nH]4)ccc3c3sccc23)c1,IC50,[1]; [6],> 10 µM
same,inhibition at 0.5 µM,"recombinant human PIM1; 500 nM compound, cell-free",64.6%
same,IC50,recombinant human PIM1; cell-free,0.716 µM
CN(C)CCNc1nc2cc(C#N)ccc2c2sccc12 [drawing 1429],IC50,[1]; [4],0.4 µM
same,inhibition at 0.5 µM,"recombinant human PIM1; 500 nM compound, cell-free",-3.84%
O=C(NC1CC1)c1ccc2c(c1)[nH]c(=O)c1ccsc12,inhibition at 10 µM,recombinant human CK2,0%
CC(C)(C)OC(=O)N1CCN(C(=O)c2ccc3c(c2)[nH]c(=O)c2ccsc23)CC1,inhibition at 10 µM,recombinant human CK2,-25%
O=C(O)c1ccc2c(c1)nc(Nc1ccccc1)c1ccccc12 [drawing 1394],IC50,[1]; [5],10 µM
same,inhibition at 0.5 µM,"recombinant human PIM1; 500 nM compound, cell-free",28.1%
O=C(O)CNc1nc2cc(C(=O)O)ccc2c2sccc12,IC50,[1]; [4],10 µM
same,inhibition at 0.5 µM,"recombinant human PIM1; 500 nM compound, cell-free",-26.1%
FC(F)(F)c1cc(Nc2nc3cc(-c4nnn[nH]4)ccc3c3sccc23)ccc1Cl,IC50,[1]; [8],> 10 µM
same,inhibition at 0.5 µM,"recombinant human PIM1; 500 nM compound, cell-free",-46.4%
CC(C)OCCNC(=O)c1ccc2c(c1)nc(N1CCN(C)CC1)c1ccsc12,IC50,[1]; [7],> 10 µM
same,inhibition at 0.5 µM,recombinant human PIM1; [2],-3.62%
c1ccc(Nc2nc3ccccc3c3sccc23)cc1 [drawing 588],inhibition at 5 µM,recombinant human CK2,0%
O=C(NCc1ccccc1)c1ccc2c(c1)[nH]c(=O)c1ccsc12 [drawing 672],CK2 % inhib @ 10 uM,recombinant human CK2,−1%
CN(C)CCNc1nc2cc(C#N)ccc2c2cnccc12,IC50,[1]; [8],1.6 µM
same,inhibition at 0.5 µM,"recombinant human PIM1; 500 nM compound, cell-free",-11.5%
O=C(O)c1ccc2c(c1)nc(N1CCOCC1)c1ccsc12 [drawing 590],inhibition at 5 µM,recombinant human CK2,28%
O=C(O)CCNC(=O)c1ccc2c(c1)[nH]c(=O)c1ccsc12,inhibition at 10 µM,recombinant human CK2,16%
O=C(O)c1ccc2c(c1)nc(Nc1ccc3[nH]ccc3c1)c1ccsc12,IC50,[1]; [6],> 10 µM
same,inhibition at 0.5 µM,"recombinant human PIM1; 500 nM compound, cell-free",51.9%
same,IC50,recombinant human PIM1; cell-free,0.679 µM
O=C(O)c1ccc2c(c1)nc(Nc1ccc(N3CCOCC3)cc1)c1ccsc12,IC50,[1]; [5],10 µM
same,inhibition at 0.5 µM,recombinant human PIM1,1.17%
O=C(O)c1ccc2c(c1)nc(OCCCO)c1ccccc12 [drawing 1388],IC50,[1]; [4],10 µM
same,inhibition at 0.5 µM,"recombinant human PIM1; 500 nM compound, cell-free",1.05%
CCOc1ccc(Nc2nc3cc(-c4nnn[nH]4)ccc3c3sccc23)cc1,IC50,[1]; [8],> 10 µM
same,inhibition at 0.5 µM,"recombinant human PIM1; 500 nM compound, cell-free",46.1%
O=C(Nc1ccccc1C(=O)O)c1ccc2c(c1)[nH]c(=O)c1ccsc12,inhibition at 10 µM,recombinant human CK2,41%
O=C(NCCCO)c1ccc2c(c1)nc(NCCCO)c1ccsc12,IC50,[1]; [4],10 µM
same,inhibition at 0.5 µM,"recombinant human PIM1; 500 nM compound, cell-free",-24.7%
O=C(NCc1ccccn1)c1ccc2c(c1)[nH]c(=O)c1ccsc12,inhibition at 10 µM,recombinant human CK2,3%
